# Source: BindingDB's records for patent US12344595 (Merck Sharp & Dohme, 2025)
# pIC50: −log10 of the molar value.
# Target: Sodium channel protein type 10 subunit alpha (Homo sapiens, UniProt Q9Y5Y9)
# Assay: Not found
# Description: Not found
# Sodium channel protein type 10 subunit alpha, sequence (Q9Y5Y9 whole entry): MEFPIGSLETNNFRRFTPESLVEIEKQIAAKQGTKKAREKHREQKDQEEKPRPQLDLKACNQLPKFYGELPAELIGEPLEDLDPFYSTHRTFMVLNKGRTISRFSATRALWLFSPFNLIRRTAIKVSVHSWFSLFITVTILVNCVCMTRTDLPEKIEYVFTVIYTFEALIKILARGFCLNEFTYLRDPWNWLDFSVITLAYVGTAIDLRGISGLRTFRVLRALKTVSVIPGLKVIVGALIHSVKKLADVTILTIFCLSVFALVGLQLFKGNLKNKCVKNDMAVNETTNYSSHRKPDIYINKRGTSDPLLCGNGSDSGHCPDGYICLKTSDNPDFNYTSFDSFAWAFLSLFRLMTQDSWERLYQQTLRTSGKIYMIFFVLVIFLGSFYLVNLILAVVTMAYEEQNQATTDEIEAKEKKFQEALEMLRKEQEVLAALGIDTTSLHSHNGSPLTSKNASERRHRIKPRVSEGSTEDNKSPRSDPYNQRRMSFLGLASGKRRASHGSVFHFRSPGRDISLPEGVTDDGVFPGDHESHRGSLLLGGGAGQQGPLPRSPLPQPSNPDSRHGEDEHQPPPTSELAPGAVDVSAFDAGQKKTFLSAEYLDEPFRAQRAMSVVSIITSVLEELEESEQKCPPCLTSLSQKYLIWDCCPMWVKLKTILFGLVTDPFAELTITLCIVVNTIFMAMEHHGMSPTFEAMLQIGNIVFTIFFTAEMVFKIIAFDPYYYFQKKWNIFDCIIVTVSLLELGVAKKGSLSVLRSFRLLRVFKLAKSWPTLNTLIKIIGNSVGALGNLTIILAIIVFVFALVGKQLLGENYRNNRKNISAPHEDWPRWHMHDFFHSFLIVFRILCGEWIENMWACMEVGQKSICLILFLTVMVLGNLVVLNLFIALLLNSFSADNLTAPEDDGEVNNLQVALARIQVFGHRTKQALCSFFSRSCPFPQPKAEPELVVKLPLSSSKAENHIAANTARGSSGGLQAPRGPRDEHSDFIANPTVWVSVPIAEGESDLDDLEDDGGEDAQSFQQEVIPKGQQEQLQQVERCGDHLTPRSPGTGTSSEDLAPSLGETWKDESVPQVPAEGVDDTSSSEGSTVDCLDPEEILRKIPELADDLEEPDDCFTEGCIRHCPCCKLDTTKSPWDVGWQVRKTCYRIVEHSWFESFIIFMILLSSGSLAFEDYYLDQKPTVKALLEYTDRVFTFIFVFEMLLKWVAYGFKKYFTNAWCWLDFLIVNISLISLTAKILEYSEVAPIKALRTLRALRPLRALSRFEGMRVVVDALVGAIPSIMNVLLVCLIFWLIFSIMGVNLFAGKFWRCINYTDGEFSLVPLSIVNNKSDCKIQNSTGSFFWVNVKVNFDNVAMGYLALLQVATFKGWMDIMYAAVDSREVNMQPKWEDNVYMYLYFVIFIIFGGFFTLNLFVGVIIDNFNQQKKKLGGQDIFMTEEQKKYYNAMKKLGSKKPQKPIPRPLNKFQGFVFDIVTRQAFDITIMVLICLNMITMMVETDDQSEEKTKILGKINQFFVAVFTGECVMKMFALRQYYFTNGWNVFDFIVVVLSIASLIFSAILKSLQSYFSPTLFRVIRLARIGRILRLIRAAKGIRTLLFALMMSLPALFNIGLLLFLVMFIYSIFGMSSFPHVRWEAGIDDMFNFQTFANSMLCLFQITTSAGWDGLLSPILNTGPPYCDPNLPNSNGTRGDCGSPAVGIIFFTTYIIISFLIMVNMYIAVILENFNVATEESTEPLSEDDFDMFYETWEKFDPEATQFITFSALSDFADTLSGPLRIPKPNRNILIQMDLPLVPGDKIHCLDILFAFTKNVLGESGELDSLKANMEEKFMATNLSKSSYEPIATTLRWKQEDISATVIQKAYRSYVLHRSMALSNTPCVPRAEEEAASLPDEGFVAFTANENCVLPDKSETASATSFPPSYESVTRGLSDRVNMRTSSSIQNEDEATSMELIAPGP
smiles,measurement,value
"Cc1nc(N2CCC(F)(F)C2)c(C(=O)Nc2cccc(S(N)(=O)=O)c2)c(C)c1Cl [US12344595, Example 5]",pIC50,7.31
